“And” between values parts separate entries of the source, which are not always exact repeats. Identical values can stand only once.
What follows are molecules tested against human KMO (Homo sapiens, UniProt O15229) (assay: KMO MS Rapidfire assay (RapidFire High-Throughput Mass Spectrometry, Method 1 or Method 2)). Settings: median pIC50, in at least one of the MS Rapidfire assays (Method 1 or 2); isolated human KMO-membranes, 10 μM Kynurenine, 200 μM NADPH; values exemplary only.
human KMO, sequence (O15229 whole entry): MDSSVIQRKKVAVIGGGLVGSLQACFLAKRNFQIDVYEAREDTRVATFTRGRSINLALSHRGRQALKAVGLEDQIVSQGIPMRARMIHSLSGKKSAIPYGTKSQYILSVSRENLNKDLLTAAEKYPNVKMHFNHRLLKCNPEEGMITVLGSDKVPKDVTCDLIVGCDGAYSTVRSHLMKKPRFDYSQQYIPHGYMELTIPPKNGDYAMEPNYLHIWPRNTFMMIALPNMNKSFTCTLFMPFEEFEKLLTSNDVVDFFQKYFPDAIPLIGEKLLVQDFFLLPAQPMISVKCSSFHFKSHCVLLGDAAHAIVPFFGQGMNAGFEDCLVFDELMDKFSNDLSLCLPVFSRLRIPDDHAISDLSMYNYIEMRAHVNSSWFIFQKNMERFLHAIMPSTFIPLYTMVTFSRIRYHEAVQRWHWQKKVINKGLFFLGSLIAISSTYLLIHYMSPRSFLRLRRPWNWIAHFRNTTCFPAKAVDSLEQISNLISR
Experimental: KMO inhibition can be determined by MS Rapidfire assay performed on the human cloned enzyme as described herein.
100 nL DMSO was dispensed into columns 6 and 18 for high and low controls, respectively, with prior inactivation of the enzyme in column 18 by pre-dispense of 30 μL of 0.5% (v/v) TFA.
Conditions for the assay of human KMO using isolated KMO-membranes were 50 mM HEPES, pH 7.5, 2 mM DTT, 1 mM EDTA, 100 μM CHAPS, 200 μM NADPH, 10 μM Kynurenine and 8 μg/ml KMO-membranes in a total reaction volume of 10 μL.
Assays were performed by initially dispensing 5 μL of a 2× Enzyme solution (16 μg/ml KMO-membranes in 50 mM HEPES, pH 7.5, 2 mM DTT, 2 mM EDTA, 200 μM CHAPS) into plates containing 100 nL compounds and incubating for 10 min at ambient temperature. […] All additions were made using a Multidrop Combi dispenser (Thermo Fisher Scientific).
Quenched assay plates were transferred to a high-throughput RapidFire200 integrated autosampler/solid-phase extraction (SPE) system (Agilent Technologies, Wakefield, Mass.). Samples were aspirated from each well for 500 ms and 10 μL was loaded directly onto a RapidFire micro-scale SPE C18 (type C) cartridge, which was washed for 3 s with HPLC-grade water containing 0.1% (v/v) formic acid to remove non-organic components. Analytes were then eluted into the mass spectrometer, in a 3 s elution cycle, using 80% (v/v) acetonitrile/water containing 0.1% (v/v) formic acid, and the cartridge was then equilibrated by washing with water containing 0.1% (v/v) formic acid for 500 ms. This gave a total cycle time of 7 s, enabling analysis of a 384-well plate in approximately 45 min.
Both Kyn and 3-HK were detected using a Sciex AP14000 triple quadrupole mass spectrometer (Applied Biosystems, Concord, Ontario, Canada), equipped with an electrospray interface and operated in positive ion mode. […] The mass spectrometer used an ESI voltage of 5500 V and a source temperature of 600° C., with a dwell time of 50 ms for each transition.
Using the integrated peak area for 3-HK data was analysed within ActivityBase (ID Business Solutions Ltd, Surrey, UK). Dose response curves were fitted to equation (1):
100 nL DMSO was dispensed into columns 6 and 18 for high and low controls, respectively, with prior inactivation of the enzyme in column 18 by pre-dispense of 50 μL of 0.5% (v/v) TFA.

Compound	IC50
O=C(O)CCN1C(=O)COc2cc(OCc3ccccn3)c(Cl)cc21 [Example 9, 3-[6-chloro-3-oxo-7-(pyridin-2-ylmethoxy)-3,4-dihydro-2H-1,4-benzoxazin-4-yl]propanoic acid]	≤ 0.0316 µM
CC(Oc1cc2c(cc1Cl)N(CCC(=O)O)C(=O)CO2)c1ncc[nH]1 (racemic) [Example 6, 2-amino-2-(hydroxymethyl)propane-1,3-diol; 3-{6-chloro-7-[1-(1H-imidazol-2-yl)ethoxy]-3-oxo-3,4-dihydro-2H-1,4-benzoxazin-4-yl}propanoic acid]	≤ 0.0316 µM
CC(Oc1cc2c(cc1Cl)N(CCC(=O)O)C(=O)CO2)c1ncco1 (single isomer, unassigned) [Example 4, 2-amino-2-(hydroxymethyl)propane-1,3-diol; 3-{6-chloro-7-[1-(1,3-oxazol-2-yl)ethoxy]-3-oxo-3,4-dihydro-2H-1,4-benzoxazin-4-yl}propanoic acid]	≤ 0.0316 µM
CC(Oc1cc2c(cc1Cl)N(CCC(=O)O)C(=O)CO2)c1ncccn1 (single isomer, unassigned) [Example 7, 2-amino-2-(hydroxymethyl)propane-1,3-diol; 3-{6-chloro-3-oxo-7-[1-(pyrimidin-2-yl)ethoxy]-3,4-dihydro-2H-1,4-benzoxazin-4-yl}propanoic acid]	≤ 0.0316 µM
CC[C@@H](Oc1cc2c(cc1Cl)N(CCC(=O)O)C(=O)CO2)c1ccc(Cl)cn1 [Example 1, (R)-3-(6-Chloro-7-(1-(5-chloropyridin-2-yl)propoxy)-3-oxo-2H-benzo[b][1,4]oxazin-4(3H)-yl)propanoic Acid]	≤ 0.0316 µM and 0.001 µM
Cc1ncc(C(C)Oc2cc3c(cc2Cl)N(CCC(=O)O)C(=O)CO3)o1 (racemic) [Example 3, 2-amino-2-(hydroxymethyl)propane-1,3-diol; 3-{6-chloro-7-[1-(2-methyl-1,3-oxazol-5-yl)ethoxy]-3-oxo-3,4-dihydro-2H-1,4-benzoxazin-4-yl}propanoic acid]	≤ 0.0316 µM

Results, then the molecule that gave them:

IC50	Compound
≤ 0.0316 µM	CCC(Oc1cc2c(cc1Cl)N(CCC(=O)O)C(=O)CO2)c1ncc(Cl)cn1 (single isomer, unassigned) [Example 26, 3-{6-chloro-7-[1-(5-chloropyrimidin-2-yl)propoxy]-3-oxo-3,4-dihydro-2H-1,4-benzoxazin-4-yl}propanoic acid]
≤ 0.0316 µM	CCC(Oc1cc2c(cc1Cl)N(CCC(=O)O)C(=O)CO2)c1ncc(C)cn1 (single isomer, unassigned) [Example 23, 3-{6-chloro-7-[1-(5-methylpyrimidin-2-yl)propoxy]-3-oxo-3,4-dihydro-2H-1,4-benzoxazin-4-yl}propanoic acid]
≤ 0.0316 µM	CCC(Oc1cc2c(cc1Cl)N(CCC(=O)O)C(=O)CO2)c1ccc(C)nn1 (single isomer, unassigned) [Example 29, 3-{6-chloro-7-[1-(6-methylpyridazin-3-yl)propoxy]-3-oxo-3,4-dihydro-2H-1,4-benzoxazin-4-yl}propanoic acid]
≤ 0.0316 µM	CCC(Oc1cc2c(cc1Cl)N(CCC(=O)O)C(=O)CO2)c1ncccn1 (single isomer, unassigned) [Example 21, 3-{6-chloro-3-oxo-7-[1-(pyrimidin-2-yl)propoxy]-3,4-dihydro-2H-1,4-benzoxazin-4-yl}propanoic acid]
≤ 0.0316 µM	CCC(Oc1cc2c(cc1Cl)N(CCC(=O)O)C(=O)CO2)c1cccnn1 (single isomer, unassigned) [Example 28, 3-{6-chloro-3-oxo-7-[1-(pyridazin-3-yl)propoxy]-3,4-dihydro-2H-1,4-benzoxazin-4-yl}propanoic acid]

Reference: patent publication US10611756B2, “Method of treating pancreatitis using 1,4-benzoxazine derivatives” (GLAXOSMITHKLINE INTELLECTUAL PROPERTY DEVELOPMENT LIMITED, priority 2015, dated 2020)
